Patent publication US9890147B2 (BAYER PHARMA AKTIENGESELLSCHAFT, priority 2012, dated 2018)

Tests used:
BRD4 (BD1) = target: T1, BRD4 (BD1) (Homo sapiens, UniProt O60885); experiment: Binding assay BRD4/acetylated peptide H4 (TR-FRET protein-protein interaction assay)
T1 construct: with relatively long constructs also being possible, preferably amino acids 44-168; made in house; host or cells: E. coli
In short: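 His6-BRD4 BD1 (aa 67-152, E. coli), usually 10 nM, with biotinylated tetra-acetylated H4 peptide in HEPES pH 7.5 buffer; 11 compound concentrations 0.1 nM–20 μM in duplicate, 10 min preincubation, 1 h at 22 °C then ≥3 h at 4 °C. TR-FRET 665/620 ratio; IC50 by 4-parameter fit.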

MOLM-13 cells = experiment: Cell proliferation assay (alamarBlue), MOLM-13; type: cell-based; details: Homo sapiens, 96 hours incubation, inhibition of cell proliferation
In short: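 Cells in RPMI1640/10% FCS read by alamarBlue fluorescence (ex 530, em 590 nm) after overnight 37 °C incubation, then treated at 1E-5 to 1E-8 M for 96 h. Pre-treatment values subtracted from endpoint values and compared with buffer-only wells; IC50 is 50% proliferation inhibition.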

SMILES	IC50 (BRD4 (BD1))	IC50 (MOLM-13 cells)
CNC(=O)N1N=C(c2ccc(-c3ccc(C(F)(F)F)nc3)cc2)c2cc(OC)c(OC)cc2C[C@@H]1C [Example 50.1, (4S)-7,8-dimethoxy-N,4-dimethyl-1-{4-[6-(trifluoromethyl)pyridin-3-yl]phenyl}-4,5-dihydro-3H-2,3-benzodiazepine-3-carboxamide]	0.11 µM	0.37 µM
COc1cc2c(cc1OC)C(c1ccc(N3CCN(C)CC3)cc1)=NN(C(C)=O)C(C)C2 (racemic) [Example 245, (±)-1-{7,8-Dimethoxy-4-methyl-1-[4-(4-methylpiperazin-1-yl)phenyl]-4,5-dihydro-3H-2,3-benzodiazepin-3-yl}ethanone]	0.62 µM	0.86 µM
CNC(=O)N1N=C(c2ccc(-c3c(C)noc3C)cc2)c2cc(N3CCOCC3)ccc2CC1C (racemic) [Example 176, (±)-1-[4-(3,5-Dimethylisoxazol-4-yl)phenyl]-N,4-dimethyl-8-(morpholin-4-yl)-4,5-dihydro-3H-2,3-benzodiazepine-3-carboxamide]	0.04 µM	0.52 µM
CNC(=O)N1N=C(c2ccc(-c3cccc(C(N)=O)c3)cc2)c2cc(OC)c(OC)cc2CC1C (racemic) [Example 77, (±)-1-(3′-carbamoylbiphenyl-4-yl)-7,8-dimethoxy-N,4-dimethyl-4,5-dihydro-3H-2,3-benzodiazepine-3-carboxamide]	0.04 µM	0.49 µM
CNC(=O)N1N=C(c2ccc(-n3ncnc3C)cc2)c2cc(OC)c(OC)cc2CC1C (racemic) [Example 153, (±)-7,8-dimethoxy-N,4-dimethyl-1-[4-(5-methyl-1H-1,2,4-triazol-1-yl)phenyl]-4,5-dihydro-3H-2,3-benzodiazepine-3-carboxamide]	0.11 µM	0.48 µM
CNC(=O)N1N=C(c2ccc(-c3ccc(C(=O)NC4CC4)cc3)cc2)c2cc(OC)c(OC)cc2CC1C (racemic) [Example 83, (±)-1-[4′-(cyclopropylcarbamoyl)biphenyl-4-yl]-7,8-dimethoxy-N,4-dimethyl-4,5-dihydro-3H-2,3-benzodiazepine-3-carboxamide]	0.03 µM	0.45 µM
CNC(=O)N1N=C(c2ccc(N3CCN(C)CC3)cc2)c2cc(OC)c(OC(F)F)cc2C[C@H]1C [Example 163.1, (4R)-7-(difluoromethoxy)-8-methoxy-N,4-dimethyl-1-[4-(4-methylpiperazin-1-yl)phenyl]-4,5-dihydro-3H-2,3-benzodiazepine-3-carboxamide]	8.94 µM	7.08 µM
CNC(=O)N1N=C(c2ccc(-c3ccccc3OC(F)(F)F)cc2)c2cc(OC)c(OC)cc2CC1C (racemic) [Example 107, (±)-7,8-dimethoxy-N,4-dimethyl-1-[2′-(trifluoromethoxy)biphenyl-4-yl]-4,5-dihydro-3H-2,3-benzodiazepine-3-carboxamide]	0.26 µM	0.63 µM
CNC(=O)N1N=C(c2ccc(-c3cccc(C(=O)NC4CC4)c3)cc2)c2cc(OC)c(OC)cc2CC1C (racemic) [Example 99, (±)-1-[3′-(cyclopropylcarbamoyl)-biphenyl-4-yl]-7,8-dimethoxy-N,4-dimethyl-4,5-dihydro-3H-2,3-benzodiazepine-3-carboxamide]	0.03 µM	0.27 µM
CNC(=O)N1N=C(c2ccc(-c3cccnc3C)cc2)c2cc(OC)c(OC)cc2CC1C (racemic) [Example 124, (±)-7,8-dimethoxy-N,4-dimethyl-1-[4-(2-methylpyridin-3-yl)phenyl]-4,5-dihydro-3H-2,3-benzodiazepine-3-carboxamide]	0.09 µM	1.07 µM
CNC(=O)N1N=C(c2ccc(-c3ccc(-c4ccc(Cl)s4)cc3)cc2)c2cc(OC)c(OC)cc2CC1C (racemic) [Example 88, (±)-1-[4′-(5-chlorothien-2-yl)biphenyl-4-yl]-7,8-dimethoxy-N,4-dimethyl-4,5-dihydro-3H-2,3-benzodiazepine-3-carboxamide]	0.29 µM	0.67 µM
CNC(=O)N1N=C(c2ccc(-c3c(C)noc3C)cc2)c2cc(Cl)c(OC)cc2C[C@@H]1C [Example 157.1, (4S)-8-chloro-1-[4-(3,5-dimethylisoxazol-4-yl)phenyl]-7-methoxy-N,4-dimethyl-4,5-dihydro-3H-2,3-benzodiazepine-3-carboxamide]	0.13 µM	0.12 µM
CNC(=O)N1N=C(c2cccc(-c3c(C)nn(C)c3C)c2)c2cc(OC)c(OC)cc2CC1C (racemic) [Example 53, (±)-7,8-dimethoxy-N,4-dimethyl-1-[3-(1,3,5-trimethyl-1H-pyrazol-4-yl)phenyl]-4,5-dihydro-3H-2,3-benzodiazepine-3-carboxamide]	0.04 µM	0.35 µM
CNC(=O)N1N=C(c2ccc(N3CCN(C(=O)C(C)(C)O)CC3)cc2)c2cc(OC)c(OC)cc2C[C@@H]1C [Example 134.1, (4S)-1-{4-[4-(2-hydroxy-2-methylpropanoyl)piperazin-1-yl]phenyl}-7,8-dimethoxy-N,4-dimethyl-4,5-dihydro-3H-2,3-benzodiazepine-3-carboxamide]	0.03 µM	0.08 µM
CNC(=O)N1N=C(c2ccc(-c3cccc(C(=O)N4CCOCC4)c3)cc2)c2cc(OC)c(OC)cc2CC1C (racemic) [Example 98, (±)-7,8-dimethoxy-N,4-dimethyl-1-[3′-(morpholin-4-ylcarbonyl)biphenyl-4-yl]-4,5-dihydro-3H-2,3-benzodiazepine-3-carboxamide]	0.03 µM	0.27 µM
CNC(=O)N1N=C(c2ccc(-c3ccc(C(=O)N4CCCC4)cc3)cc2)c2cc(OC)c(OC)cc2CC1C (racemic) [Example 78, (±)-7,8-dimethoxy-N,4-dimethyl-1-[4′-(pyrrolidin-1-ylcarbonyl)biphenyl-4-yl]-4,5-dihydro-3H-2,3-benzodiazepine-3-carboxamide]	0.04 µM	0.37 µM
CNC(=O)N1N=C(c2ccc(N3CCOCC3=O)cc2)c2cc(OC)c(OC)cc2CC1C (racemic) [Example 40, (±)-7,8-dimethoxy-N,4-dimethyl-1-[4-(3-oxomorpholin-4-yl)phenyl]-4,5-dihydro-3H-2,3-benzodiazepine-3-carboxamide]	0.28 µM	1.47 µM
CC[C@H]1Cc2cc(OC)c(OC)cc2C(c2ccc(N3CCOCC3)cc2)=NN1C(=O)NC [Example 209, (4S)-4-ethyl-7,8-dimethoxy-N-methyl-1-[4-(morpholin-4-yl)phenyl]-4,5-dihydro-3H-2,3-benzodiazepine-3-carboxamide]	0.37 µM	0.19 µM
CNC(=O)N1N=C(c2ccc(-c3cncc(F)c3)cc2)c2cc(OC)c(OC)cc2CC1C (racemic) [Example 122, (±)-1-[4-(5-fluoropyridin-3-yl)phenyl]-7,8-dimethoxy-N,4-dimethyl-4,5-dihydro-3H-2,3-benzodiazepine-3-carboxamide]	0.06 µM	0.66 µM
CNC(=O)N1N=C(c2ccc(-c3ccc(F)cc3)cc2)c2cc(OC)c(OC)cc2CC1C (racemic) [Example 62, (±)-1-(4′-fluorobiphenyl-4-yl)-7,8-dimethoxy-N,4-dimethyl-4,5-dihydro-3H-2,3-benzodiazepine-3-carboxamide]	0.06 µM	0.65 µM
CNC(=O)N1N=C(c2ccc(N3CCN(C(=O)C(C)(C)O)CC3)cc2)c2cc(OC)c(OC)cc2CC1C (racemic) [Example 134, (±)-1-{4-[4-(2-hydroxy-2-methylpropanoyl)-piperazin-1-yl]phenyl}-7,8-dimethoxy-N,4-dimethyl-4,5-dihydro-3H-2,3-benzodiazepine-3-carboxamide]	0.05 µM	0.36 µM
CNC(=O)N1N=C(c2ccc(N3CCNCC3=O)cc2)c2cc(OC)c(OC)cc2CC1C (racemic) [Example 44, (±)-7,8-Dimethoxy-N,4-dimethyl-1-[4-(2-oxopiperazin-1-yl)phenyl]-4,5-dihydro-3H-2,3-benzodiazepine-3-carboxamide]	0.05 µM	0.21 µM
CNC(=O)N1N=C(c2ccc(-n3nc(C4CC4)cc3-c3ccccn3)cc2)c2cc(OC)ccc2C[C@@H]1C [Example 29, (4S)-1-{4-[3-cyclopropyl-5-(pyridin-2-yl)-1H-pyrazol-1-yl]phenyl}-8-methoxy-N,4-dimethyl-4,5-dihydro-3H-2,3-benzodiazepine-3-carboxamide]	0.13 µM	0.36 µM
CNC(=O)N1N=C(c2ccc(N3CCOC(C)C3=O)cc2)c2cc(OC)c(OC)cc2CC1C (racemic) [Example 42, (±)-7,8-dimethoxy-N,4-dimethyl-1-[4-(2-methyl-3-oxomorpholin-4-yl)phenyl]-4,5-dihydro-3H-2,3-benzodiazepine-3-carboxamide]	0.2 µM	1.29 µM
CNC(=O)N1N=C(c2ccc(N3CCN(C)CC3)c(Br)c2)c2cc(OC)c(OC)cc2C[C@@H]1C [Example 253, (4S)-1-[3-Bromo-4-(4-methylpiperazin-1-yl)phenyl]-7,8-dimethoxy-N,4-dimethyl-4,5-dihydro-3H-2,3-benzodiazepine-3-carboxamide]	0.04 µM	0.06 µM
CNC(=O)N1N=C(c2ccc(-c3cccc([N+](=O)[O-])c3)cc2)c2cc(OC)c(OC)cc2CC1C (racemic) [Example 59, (±)-7,8-dimethoxy-N,4-dimethyl-1-(3′-nitrobiphenyl-4-yl)-4,5-dihydro-3H-2,3-benzodiazepine-3-carboxamide]	0.07 µM	0.62 µM
CNC(=O)N1N=C(c2ccc(-c3ccccc3CO)cc2)c2cc(OC)c(OC)cc2CC1C (racemic) [Example 112, (±)-1-[2′-(hydroxymethyl)biphenyl-4-yl]-7,8-dimethoxy-N,4-dimethyl-4,5-dihydro-3H-2,3-benzodiazepine-3-carboxamide]	0.08 µM	0.63 µM
